# Results reported in ChEMBL document CHEMBL1201862, “PubChem BioAssay data set” (2004).
# Activity calls are given as the source filed them.
# Experiments:
# X-box-binding protein 1 = X-box-binding protein 1 (Homo sapiens, UniProt P17861); type: functional, Cricetulus griseus;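 also: confirmatory dose-response counter-screen serving a CHOP assay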
# [1] = alpha-synuclein stem-loop luciferase translation blockers – H4 neuroglioma cells, luminescence, confirmation (AID 1988); type: functional, cell-based
# BJ [2] = test: BJ-TERT fibroblast viability loss – cell-based, RAS-independent, luminescence, dose response (AID 1933); type: functional; settings: Homo sapiens
# BJ [3] = test: cells; type: functional, cell-based; settings: Homo sapiens
# J774.A1 = test: Confirmation of image-based Screening Assay for Inhibitors of Phagocytosis. [Related pubchem assays (depositor defined):AID1029, AID1643]; type: functional, cell-based; settings: Mus musculus
# [4] = biological target: T1, Heat shock factor protein 1 (Mus musculus, UniProt P38532); test: decrease of HSF1-responsive luciferase luminescence – cell-based, NIH3T3, dose retest, confirmation (AID 2382); type: functional;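 also: NIH3T3 fibroblasts with HSF1-driven luciferase reporter stressed by proteasome inhibitor MG132; luminescence from HSF1-driven luciferase expression after 8 hours of MG132 stress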
# T1 sequence (P38532 whole entry): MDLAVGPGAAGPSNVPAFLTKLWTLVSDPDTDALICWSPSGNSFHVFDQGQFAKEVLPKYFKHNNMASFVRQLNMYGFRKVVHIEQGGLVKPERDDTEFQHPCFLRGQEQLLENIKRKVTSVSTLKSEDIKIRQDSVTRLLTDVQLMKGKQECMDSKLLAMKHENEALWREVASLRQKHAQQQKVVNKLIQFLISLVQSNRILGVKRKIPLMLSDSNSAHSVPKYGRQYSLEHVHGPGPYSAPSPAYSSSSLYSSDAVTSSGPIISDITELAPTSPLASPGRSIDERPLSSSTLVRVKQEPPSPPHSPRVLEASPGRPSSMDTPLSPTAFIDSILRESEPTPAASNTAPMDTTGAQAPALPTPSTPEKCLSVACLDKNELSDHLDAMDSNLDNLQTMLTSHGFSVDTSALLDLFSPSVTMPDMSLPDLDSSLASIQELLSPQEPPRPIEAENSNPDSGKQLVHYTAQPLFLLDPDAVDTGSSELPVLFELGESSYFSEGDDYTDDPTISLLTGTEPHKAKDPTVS
# [5] = HGIII-sPLA2 enzyme inhibition potency – biochemical, QFRET, IC50, dose response (AID 743457);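 also: green fluorescence rise as the enzyme cleaves BODIPY PC-A2 in liposomes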
# [6] = Luminescence Cell-Based Dose Response HTS to Identify Inhibitors of 5'UTR Stem-Loop Driven Prion Protein mRNA Translation in H4 Neuroglioblastoma Cells. [Related pubchem assays: 1827 (Project Summary), 1813 (Primary HTS)]; type: functional
# [7] = luciferase reporter signal suppression in cells – H4 neuroglioma cells, luminescence, dose response (AID 1990); type: functional, cell-based
# [8] = DRD fibroblast viability loss – cell-based, non-viral oncogenic, luminescence, dose response (AID 1934); type: functional; settings: Homo sapiens
# BJ [9] = test: BJ-TERT-LT-ST fibroblast viability loss – cell-based, RAS-independent, luminescence, dose response (AID 1935); type: functional; settings: Homo sapiens;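 also: BJ fibroblasts immortalized with TERT plus LT and ST oncogenes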
# [10] = biological target: Neurotensin receptor type 1 (Homo sapiens, UniProt P30989); type: functional;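 also: Image-based confirmatory dose-response assay measuring agonist activity at NTR1; NTR1-expressing U2OS osteosarcoma cells imaged for beta-arrestin GFP spot formation; agonist potency where compounds increase beta-arrestin recruitment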
# [11] = loss of viability in HepG2 cells – cell-based, CellTiter-Glo, cherry-picked, cytotoxicity control for Shn3 inhibitor project, dose response (AID 624134); type: functional
# Protein RecA = biological target: T2, Protein RecA (Mycobacterium tuberculosis, UniProt P9WHJ3); test: Fluorescence Cell-Free Homogeneous Dose Retest to Identify Inhibitors of RecA-Intein Splicing Activity. [Related pubchem assays (depositor defined):AID2097, AID2223, AID489010, AID492950]; type: functional
# T2 sequence (P9WHJ3 whole entry): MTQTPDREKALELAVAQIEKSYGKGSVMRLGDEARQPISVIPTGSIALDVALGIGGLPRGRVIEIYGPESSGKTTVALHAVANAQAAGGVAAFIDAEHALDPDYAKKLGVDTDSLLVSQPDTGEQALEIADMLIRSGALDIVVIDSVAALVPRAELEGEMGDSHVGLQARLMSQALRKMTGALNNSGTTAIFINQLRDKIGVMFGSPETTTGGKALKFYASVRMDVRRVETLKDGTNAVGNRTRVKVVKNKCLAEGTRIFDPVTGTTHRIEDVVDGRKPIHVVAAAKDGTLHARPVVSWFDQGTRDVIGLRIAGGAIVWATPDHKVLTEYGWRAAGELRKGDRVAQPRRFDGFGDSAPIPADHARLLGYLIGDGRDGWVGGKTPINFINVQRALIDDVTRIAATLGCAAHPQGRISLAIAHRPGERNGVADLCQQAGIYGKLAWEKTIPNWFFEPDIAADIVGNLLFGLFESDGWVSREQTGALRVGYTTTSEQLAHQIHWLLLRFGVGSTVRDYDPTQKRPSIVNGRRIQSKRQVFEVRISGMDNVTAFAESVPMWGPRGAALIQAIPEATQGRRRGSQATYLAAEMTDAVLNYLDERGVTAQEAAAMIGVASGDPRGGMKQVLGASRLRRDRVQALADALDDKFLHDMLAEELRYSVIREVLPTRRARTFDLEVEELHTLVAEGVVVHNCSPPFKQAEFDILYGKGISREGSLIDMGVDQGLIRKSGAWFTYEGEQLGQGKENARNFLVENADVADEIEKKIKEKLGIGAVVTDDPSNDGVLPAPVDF
# [12] = non-specific 3'UTR reporter inhibition in Clone20-Shn3RL – cell-based, Renilla luciferase, cherry-picked, counter-screen for Shn3 inhibitor project, dose response (AID 624133); type: functional
# [13] = reduction of Shn3 3'UTR-driven luciferase in osteoblasts – cell-based, Clone20 osteoblasts, firefly luciferase, cherry-picked, dose response (AID 624132); type: functional;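 also: firefly luciferase luminescence from reporter carrying the Shn3 3'UTR in osteoblasts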
# [14] = biological target: T3, Replicative DNA helicase DnaB (Mycobacterium tuberculosis, UniProt P9WMR3); test: DnaB intein splicing inhibitors, dose response, biochemical, cell-free fluorescence (AID 449749); type: functional
# T3 sequence (P9WMR3 whole entry): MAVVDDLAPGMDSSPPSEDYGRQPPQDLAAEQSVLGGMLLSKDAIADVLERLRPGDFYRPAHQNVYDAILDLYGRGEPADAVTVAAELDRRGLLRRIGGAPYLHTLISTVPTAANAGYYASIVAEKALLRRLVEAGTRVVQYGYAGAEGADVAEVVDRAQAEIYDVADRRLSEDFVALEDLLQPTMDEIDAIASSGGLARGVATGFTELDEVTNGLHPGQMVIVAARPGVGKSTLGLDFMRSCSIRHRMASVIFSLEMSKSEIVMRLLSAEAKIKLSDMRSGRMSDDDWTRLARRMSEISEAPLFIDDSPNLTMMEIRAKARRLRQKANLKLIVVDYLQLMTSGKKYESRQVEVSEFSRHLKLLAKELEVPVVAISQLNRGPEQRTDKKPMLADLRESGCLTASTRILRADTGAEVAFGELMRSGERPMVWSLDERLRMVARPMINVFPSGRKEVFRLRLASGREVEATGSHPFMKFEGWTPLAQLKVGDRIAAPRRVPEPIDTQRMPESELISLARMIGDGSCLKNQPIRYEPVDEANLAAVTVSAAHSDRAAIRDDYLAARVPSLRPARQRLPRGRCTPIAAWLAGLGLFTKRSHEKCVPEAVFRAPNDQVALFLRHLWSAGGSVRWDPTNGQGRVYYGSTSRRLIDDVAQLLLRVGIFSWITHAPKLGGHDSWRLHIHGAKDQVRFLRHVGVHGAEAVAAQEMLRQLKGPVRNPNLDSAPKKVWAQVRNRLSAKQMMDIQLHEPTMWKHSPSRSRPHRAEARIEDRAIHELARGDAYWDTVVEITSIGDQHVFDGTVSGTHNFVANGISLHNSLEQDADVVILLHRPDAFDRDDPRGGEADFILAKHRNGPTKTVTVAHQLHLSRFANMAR
# NS3 = NS3 (Hepatitis C virus, UniProt A3EZJ3); test: PubChem AID 2173; set-up: species or system Hepacivirus hominis
# [15] = biological target: Disintegrin and metalloproteinase domain-containing protein 17 (Homo sapiens, UniProt P78536); test: exosite inhibitors of ADAM17, dose response, biochemical (AID 743260)
# Vero = test: viability of Vero cells under compound – cytotoxicity control for flavivirus capping enzyme inhibitors (AID 588742); type: functional; settings: Chlorocebus sabaeus
# [16] = inhibition of ADAM10 peptide cleavage – biochemical, FRET peptide substrate, recombinant human ADAM10, selectivity assay for ADAM17 exosite inhibitor project, dose response (AID 743259);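 also: ADAM10 enzyme cleaving a FRET peptide substrate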
# H9c2 = test: cells; type: functional, cell-based; settings: Rattus norvegicus, H9c2, Myocardium;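 also: confirmatory concentration-response retest of ultra-high-throughput screening hits for modulation of myocardial damage; cell death induced by hydrogen peroxide oxidative stress; compound pretreatment for 60 min then peroxide exposure for 2 h; potency is for protecting the cells against peroxide damage rather than for killing them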
# [17] = biological target: T4, Histone-lysine N-methyltransferase NSD2 (Homo sapiens, UniProt O96028); type: biochemical
# T4 sequence (O96028 whole entry): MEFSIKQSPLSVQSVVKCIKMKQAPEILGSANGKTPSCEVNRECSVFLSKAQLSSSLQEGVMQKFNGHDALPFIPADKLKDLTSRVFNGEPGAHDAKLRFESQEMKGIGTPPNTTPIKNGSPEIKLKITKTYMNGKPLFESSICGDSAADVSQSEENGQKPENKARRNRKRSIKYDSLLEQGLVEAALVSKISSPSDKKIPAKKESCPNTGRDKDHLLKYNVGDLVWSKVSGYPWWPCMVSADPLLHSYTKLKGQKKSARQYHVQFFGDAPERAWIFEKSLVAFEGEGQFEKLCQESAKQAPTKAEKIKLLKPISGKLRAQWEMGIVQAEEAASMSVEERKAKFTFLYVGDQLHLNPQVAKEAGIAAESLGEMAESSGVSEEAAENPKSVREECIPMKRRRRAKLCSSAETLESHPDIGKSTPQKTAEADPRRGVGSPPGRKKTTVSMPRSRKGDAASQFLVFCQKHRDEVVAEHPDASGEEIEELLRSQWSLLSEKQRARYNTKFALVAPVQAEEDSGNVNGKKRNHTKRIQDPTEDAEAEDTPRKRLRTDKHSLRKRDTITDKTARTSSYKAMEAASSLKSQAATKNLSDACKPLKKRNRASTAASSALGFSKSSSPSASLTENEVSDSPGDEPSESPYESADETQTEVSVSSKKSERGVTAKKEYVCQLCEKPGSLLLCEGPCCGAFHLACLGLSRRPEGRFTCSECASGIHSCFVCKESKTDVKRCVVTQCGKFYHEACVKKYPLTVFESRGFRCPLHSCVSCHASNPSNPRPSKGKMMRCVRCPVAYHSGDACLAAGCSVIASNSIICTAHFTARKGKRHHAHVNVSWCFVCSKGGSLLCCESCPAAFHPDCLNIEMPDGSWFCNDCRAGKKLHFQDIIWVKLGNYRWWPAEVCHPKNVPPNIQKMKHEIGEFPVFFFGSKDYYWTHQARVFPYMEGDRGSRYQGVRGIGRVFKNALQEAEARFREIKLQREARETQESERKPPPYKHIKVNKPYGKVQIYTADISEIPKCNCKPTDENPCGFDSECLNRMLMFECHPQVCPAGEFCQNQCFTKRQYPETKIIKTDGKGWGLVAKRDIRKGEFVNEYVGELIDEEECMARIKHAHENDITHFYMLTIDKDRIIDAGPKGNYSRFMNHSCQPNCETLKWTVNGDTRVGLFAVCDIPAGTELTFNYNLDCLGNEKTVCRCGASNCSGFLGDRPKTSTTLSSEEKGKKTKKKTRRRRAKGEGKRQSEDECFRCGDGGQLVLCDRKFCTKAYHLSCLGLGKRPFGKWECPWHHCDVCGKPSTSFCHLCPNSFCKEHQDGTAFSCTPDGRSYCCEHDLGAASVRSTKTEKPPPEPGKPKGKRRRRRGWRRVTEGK
# SUMO-activating enzyme [18] = biological target: T5, SUMO-activating enzyme (Homo sapiens, UniProt Q9UBT2); test: blockers of SAE1/SAE2–UBC9 SUMO transfer – biochemical, HTRF, uHTS, primary screen (AID 2006); type: protein-complex assay
# SUMO-activating enzyme [19] = biological target: T5, SUMO-activating enzyme; test: blockers of UBC9-mediated SUMO conjugation – biochemical, AlphaScreen, SUMOylation inhibitor project, confirmation (AID 2018); type: functional
# [20] = biological target: Eukaryotic translation initiation factor 4H (Homo sapiens, UniProt Q15056); test: eIF4H binding inhibition – biochemical, uHTS, fluorescence polarization, translation initiation inhibitor project, primary screen (AID 2012)
# [21] = biological target: Polyadenylate-binding protein 1 (Homo sapiens, UniProt P11940); test: blockers of PABP interaction with poly(A) – biochemical, fluorescence polarization, […] (AID 2014)
# Polyadenylate-binding protein 1, sequence (P11940 whole entry): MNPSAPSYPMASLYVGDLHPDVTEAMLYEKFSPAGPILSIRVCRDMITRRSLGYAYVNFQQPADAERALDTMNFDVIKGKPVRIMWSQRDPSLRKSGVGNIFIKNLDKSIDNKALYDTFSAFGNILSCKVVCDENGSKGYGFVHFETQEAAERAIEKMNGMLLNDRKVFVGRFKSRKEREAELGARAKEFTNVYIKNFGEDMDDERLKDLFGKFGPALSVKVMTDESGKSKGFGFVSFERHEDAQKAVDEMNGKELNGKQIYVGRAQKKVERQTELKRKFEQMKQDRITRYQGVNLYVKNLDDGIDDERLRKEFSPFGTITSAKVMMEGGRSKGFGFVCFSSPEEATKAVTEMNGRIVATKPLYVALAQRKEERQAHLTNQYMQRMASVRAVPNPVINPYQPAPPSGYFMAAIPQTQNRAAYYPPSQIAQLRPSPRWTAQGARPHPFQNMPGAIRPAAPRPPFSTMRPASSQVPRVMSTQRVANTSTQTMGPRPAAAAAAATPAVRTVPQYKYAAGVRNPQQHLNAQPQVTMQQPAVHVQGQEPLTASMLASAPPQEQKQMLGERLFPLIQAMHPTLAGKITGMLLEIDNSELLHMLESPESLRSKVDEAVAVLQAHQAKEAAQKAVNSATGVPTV
# T5 sequence (Q9UBE0 whole entry): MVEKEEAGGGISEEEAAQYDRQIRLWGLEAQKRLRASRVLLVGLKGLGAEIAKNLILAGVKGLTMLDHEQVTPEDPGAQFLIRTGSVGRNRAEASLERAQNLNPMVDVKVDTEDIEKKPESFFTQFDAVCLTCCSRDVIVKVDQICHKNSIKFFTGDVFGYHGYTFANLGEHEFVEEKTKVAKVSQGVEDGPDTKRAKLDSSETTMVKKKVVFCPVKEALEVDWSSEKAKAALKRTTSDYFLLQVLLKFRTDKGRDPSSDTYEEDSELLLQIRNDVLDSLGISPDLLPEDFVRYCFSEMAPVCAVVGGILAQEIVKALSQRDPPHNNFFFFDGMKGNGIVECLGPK
# T5 sequence (Q9UBT2 whole entry): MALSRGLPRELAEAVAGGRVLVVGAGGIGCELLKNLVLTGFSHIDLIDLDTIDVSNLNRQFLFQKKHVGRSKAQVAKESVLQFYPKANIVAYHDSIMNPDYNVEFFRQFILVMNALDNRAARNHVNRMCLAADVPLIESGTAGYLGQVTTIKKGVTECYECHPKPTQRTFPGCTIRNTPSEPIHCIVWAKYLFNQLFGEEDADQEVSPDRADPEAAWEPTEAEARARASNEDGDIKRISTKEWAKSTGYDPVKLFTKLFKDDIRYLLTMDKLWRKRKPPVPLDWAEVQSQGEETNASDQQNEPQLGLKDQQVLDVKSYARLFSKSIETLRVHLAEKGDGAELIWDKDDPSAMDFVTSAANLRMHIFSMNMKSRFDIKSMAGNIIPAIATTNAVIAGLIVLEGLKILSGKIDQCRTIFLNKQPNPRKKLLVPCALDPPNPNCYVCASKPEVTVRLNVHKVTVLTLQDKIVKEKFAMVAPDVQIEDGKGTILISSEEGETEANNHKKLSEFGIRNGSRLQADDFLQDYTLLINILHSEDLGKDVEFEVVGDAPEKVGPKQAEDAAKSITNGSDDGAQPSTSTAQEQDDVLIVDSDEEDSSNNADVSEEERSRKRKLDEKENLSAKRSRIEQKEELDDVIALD
# Neurotensin receptor type 1, sequence (P30989 whole entry): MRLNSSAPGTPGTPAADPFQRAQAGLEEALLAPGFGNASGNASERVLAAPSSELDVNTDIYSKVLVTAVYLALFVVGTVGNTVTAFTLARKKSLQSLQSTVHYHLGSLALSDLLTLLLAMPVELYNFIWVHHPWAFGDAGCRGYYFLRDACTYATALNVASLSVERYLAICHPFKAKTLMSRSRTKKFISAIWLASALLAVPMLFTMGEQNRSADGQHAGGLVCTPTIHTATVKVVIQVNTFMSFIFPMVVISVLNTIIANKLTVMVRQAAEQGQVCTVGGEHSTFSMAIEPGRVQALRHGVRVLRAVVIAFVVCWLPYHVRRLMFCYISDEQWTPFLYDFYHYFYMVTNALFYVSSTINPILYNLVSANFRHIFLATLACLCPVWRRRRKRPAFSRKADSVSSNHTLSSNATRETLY
# X-box-binding protein 1, sequence (P17861 whole entry): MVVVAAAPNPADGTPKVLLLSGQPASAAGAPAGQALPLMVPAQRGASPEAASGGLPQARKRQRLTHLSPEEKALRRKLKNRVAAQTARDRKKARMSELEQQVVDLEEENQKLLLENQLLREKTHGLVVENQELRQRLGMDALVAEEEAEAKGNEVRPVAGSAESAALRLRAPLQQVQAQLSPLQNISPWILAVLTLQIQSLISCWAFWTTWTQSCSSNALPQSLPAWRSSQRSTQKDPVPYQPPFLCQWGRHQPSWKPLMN
# NS3, sequence (A3EZJ3 whole entry, the tested form may be a part): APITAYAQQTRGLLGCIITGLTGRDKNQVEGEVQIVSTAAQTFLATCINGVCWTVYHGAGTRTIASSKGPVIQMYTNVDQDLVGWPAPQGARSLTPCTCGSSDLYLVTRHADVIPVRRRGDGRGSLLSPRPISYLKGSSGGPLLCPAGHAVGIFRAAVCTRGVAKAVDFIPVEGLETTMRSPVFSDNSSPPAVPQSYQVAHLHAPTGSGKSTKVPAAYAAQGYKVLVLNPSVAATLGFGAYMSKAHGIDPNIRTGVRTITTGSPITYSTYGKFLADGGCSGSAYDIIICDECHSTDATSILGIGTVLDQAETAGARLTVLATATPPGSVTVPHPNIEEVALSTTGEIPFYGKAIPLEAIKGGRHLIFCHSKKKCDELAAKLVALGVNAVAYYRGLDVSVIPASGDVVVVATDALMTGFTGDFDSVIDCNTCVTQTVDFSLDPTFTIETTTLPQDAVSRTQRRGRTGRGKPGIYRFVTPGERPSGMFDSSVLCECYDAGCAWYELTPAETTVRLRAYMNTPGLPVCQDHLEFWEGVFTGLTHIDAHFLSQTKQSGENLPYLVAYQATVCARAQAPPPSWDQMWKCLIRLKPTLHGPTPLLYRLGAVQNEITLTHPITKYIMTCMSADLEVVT
# Disintegrin and metalloproteinase domain-containing protein 17, sequence (P78536 whole entry, the tested form may be a part): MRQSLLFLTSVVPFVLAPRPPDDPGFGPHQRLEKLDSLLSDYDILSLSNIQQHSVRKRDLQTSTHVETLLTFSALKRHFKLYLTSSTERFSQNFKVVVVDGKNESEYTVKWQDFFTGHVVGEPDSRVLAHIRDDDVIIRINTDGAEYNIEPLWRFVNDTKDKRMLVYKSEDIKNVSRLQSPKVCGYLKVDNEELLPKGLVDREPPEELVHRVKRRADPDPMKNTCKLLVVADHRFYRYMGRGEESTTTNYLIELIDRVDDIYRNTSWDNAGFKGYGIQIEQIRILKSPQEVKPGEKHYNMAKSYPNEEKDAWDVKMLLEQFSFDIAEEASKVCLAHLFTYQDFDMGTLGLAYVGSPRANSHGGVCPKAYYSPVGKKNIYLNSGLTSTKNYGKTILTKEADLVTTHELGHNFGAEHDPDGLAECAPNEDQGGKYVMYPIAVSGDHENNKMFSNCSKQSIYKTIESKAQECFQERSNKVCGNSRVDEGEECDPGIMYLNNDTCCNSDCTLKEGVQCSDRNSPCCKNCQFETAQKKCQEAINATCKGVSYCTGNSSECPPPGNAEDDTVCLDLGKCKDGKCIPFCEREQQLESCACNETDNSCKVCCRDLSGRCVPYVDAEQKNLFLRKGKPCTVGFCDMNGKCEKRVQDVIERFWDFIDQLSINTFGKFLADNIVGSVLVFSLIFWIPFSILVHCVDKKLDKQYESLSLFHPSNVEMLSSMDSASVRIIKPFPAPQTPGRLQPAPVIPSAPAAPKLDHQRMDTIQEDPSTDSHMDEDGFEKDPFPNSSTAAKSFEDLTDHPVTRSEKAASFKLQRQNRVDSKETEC
compound,measurement,setting,value
CCOc1ccc(N/C=C2/C(=O)NC(=O)N(C(C)(C)C)C2=O)cc1,Absolute IC50 (XBP1),X-box-binding protein 1,10 µM
CCOc1cc(CNc2ccc3c(c2)OCCO3)cc(Br)c1OCC,EC50,[1],1.58 µM (active)
same,EC50,BJ [2],1.85 µM (active)
same,EC50,BJ [3],15.6 µM (active)
same,IC50,J774.A1,2.51 µM (active)
same,EC50,[4],2.48 µM (active)
same,IC50,[5],> 122 µM (inactive)
same,EC50,[6],> 120 µM (not active)
same,EC50,[7],8.47 µM (inconclusive)
same,EC50,[8],1.6 µM (active)
same,EC50,BJ [9],2.43 µM (inconclusive)
CC(CCc1ccccc1)NC(=O)COC(=O)c1ccc(S(C)(=O)=O)c([N+](=O)[O-])c1 (configuration not stated),EC50,[10],9.29 µM (active)
same,AC50,[11],39.4 µM (active)
same,EC50,Protein RecA,3.7 µM (active)
same,AC50,[12],9.93 µM (active)
same,AC50,[13],3.34 µM (active)
same,AC50,[14],10 µM (active)
CCOc1ccc(/C=C/C(=O)c2cc(Br)ccc(=O)c2O)cc1,IC50,NS3,4.35 µM (active)
same,IC50,[15],11.4 µM (inactive)
same,CC50,Vero,7 µM (active)
same,IC50,[16],17.6 µM (inactive)
same,IC50,H9c2,6.72 µM (active)
COc1cc2c(C#N)c(N3CCCC3)nc(N)c2c(N)n1,AC50,[17],9.62 µM (active)
same,IC50,SUMO-activating enzyme [18],3.79 µM (active)
same,IC50,SUMO-activating enzyme [19],5.34 µM (active)
O=C(NCC(=O)N1CCN(c2ccccc2O)CC1)c1ccc2c(c1)OCO2,IC50,[20],28.2 µM (active)
same,IC50,[21],> 100 µM (inactive)
